# Assay results taken from PubChem BioAssay AID212 (DTP/NCI, 2004).
# Where “and” joins values, the source holds several entries; their conditions need not be identical. Equal entries are not always repeated. Inconclusive results are not listed.
# System: BDF1 mice, colon carcinoma 38 sc, T/C %
# Experiment: NCI In Vivo Anticancer Drug Screen. Data for tumor model Colon Carcinoma 38 (subcutaneous) in B6D2F1 (BDF1) mice
# Settings: endpoint: median tumor weight (est.), schedule: Q07DX002 (ip), higher = larger tumour
# Procedure, shortened: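 Mice with transplanted tumors are treated with compound or vehicle. Survival or tumor size is then measured in both groups. The ratio of treated to control gives the reported figure.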
# [1] = dose: 25.0 mg/kg/injection, vehicle: saline with Tween-80
# [2] = dose: 50.0 mg/kg/injection, vehicle: saline with Tween-80
# [3] = dose: 100.0 mg/kg/injection, vehicle: saline with Tween-80
# [4] = dose: 200.0 mg/kg/injection, vehicle: saline with Tween-80
# [5] = dose: 50.0 mg/kg/injection, vehicle: other
# [6] = dose: 100.0 mg/kg/injection, vehicle: other
# [7] = dose: 200.0 mg/kg/injection, vehicle: other
# [8] = dose: 6.25 mg/kg/injection, vehicle: saline
# [9] = dose: 25.0 mg/kg/injection, vehicle: saline
# [10] = dose: 50.0 mg/kg/injection, vehicle: saline
# [11] = dose: 12.5 mg/kg/injection, vehicle: saline
# [12] = dose: 200.0 mg/kg/injection, vehicle: saline
structure (smiles),measurement,setting,value
O=C1C(NCC(O)CO)=C(N2CC2)C(=O)C(NCC(O)CO)=C1N1CC1 (centres undefined),T/C,"dose: 2.0 mg/kg/injection, vehicle: saline",105 % of control
same,T/C,"dose: 4.0 mg/kg/injection, vehicle: saline",60 % of control
same,T/C,"dose: 4.0 mg/kg/injection, vehicle: suspension in saline",66 % of control
same,T/C,"dose: 8.0 mg/kg/injection, vehicle: saline",77 % of control
same,T/C,"dose: 8.0 mg/kg/injection, vehicle: suspension in saline",100 % of control
same,T/C,"dose: 16.0 mg/kg/injection, vehicle: saline",12 % of control
same,T/C,"dose: 16.0 mg/kg/injection, vehicle: suspension in saline",69 % of control
O=C(O)[C@H](Cc1ccccc1)N1C(=O)c2ccccc2C1=O,T/C,"dose: 50.0 mg/kg/injection, vehicle: DMSO",98 % of control
same,T/C,"dose: 100.0 mg/kg/injection, vehicle: DMSO",108 % of control
CCN(CC)CCNc1ccc(C)c2sc3ccc(O)cc3c(=O)c12,T/C,[1],92 % of control
same,T/C,[2],74 % of control
same,T/C,[3],68 % of control
same,T/C,[4],33 % of control
C[C@@]12C(=O)OC(=O)[C@]1(C)[C@H]1CC[C@@H]2O1,T/C,"dose: 0.12 mg/kg/injection, vehicle: Klucel (hydroxypropylcellulose) (HPC)",88 % of control
same,T/C,"dose: 0.25 mg/kg/injection, vehicle: Klucel (hydroxypropylcellulose) (HPC)",65 % of control
same,T/C,"dose: 0.5 mg/kg/injection, vehicle: Klucel (hydroxypropylcellulose) (HPC)",69 % of control
same,T/C,"dose: 1.0 mg/kg/injection, vehicle: Klucel (hydroxypropylcellulose) (HPC)",76 % of control
same,T/C,"dose: 2.0 mg/kg/injection, vehicle: Klucel (hydroxypropylcellulose) (HPC)",86 % of control
Cc1ccc(S(=O)(=O)N/N=C/C(=O)O)cc1,T/C,"dose: 12.5 mg/kg/injection, vehicle: other",116 % of control
same,T/C,"dose: 25.0 mg/kg/injection, vehicle: other",165 % of control
same,T/C,[5],75 % of control
same,T/C,[6],90 % of control
same,T/C,[7],178 % of control
C[CH2][Ge]1([CH2]C)[CH2]CC2(CCN(CCCN(C)C)C2)C[CH2]1,T/C,[8],97 % of control
same,T/C,[9],105 % of control
same,T/C,[10],110 % of control
O=Cc1ccc(C=O)c(Cl)c1,T/C,"dose: 50.0 mg/kg/injection, vehicle: Klucel (hydroxypropylcellulose) (HPC)",107 % of control
same,T/C,"dose: 100.0 mg/kg/injection, vehicle: Klucel (hydroxypropylcellulose) (HPC)",79 % of control
same,T/C,"dose: 200.0 mg/kg/injection, vehicle: Klucel (hydroxypropylcellulose) (HPC)",95 % of control
same,T/C,"dose: 400.0 mg/kg/injection, vehicle: Klucel (hydroxypropylcellulose) (HPC)",75 % of control
O=C(Nc1nncs1)c1ccncc1,T/C,"dose: 12.5 mg/kg/injection, vehicle: saline with Tween-80",93 % of control and 98 % of control
same,T/C,[2],91 % of control and 96 % of control
same,T/C,[3],102 % of control
same,T/C,[4],81 % of control
same,T/C,"dose: 400.0 mg/kg/injection, vehicle: saline with Tween-80",69 % of control and 93 % of control
C=CC(C)(C)n1cc(C2=C(O)C(=O)C(c3cn(C(C)(C)C=C)c4ccccc34)=C(O)C2=O)c2ccccc21,T/C,"dose: 5.0 mg/kg/injection, vehicle: Klucel (hydroxypropylcellulose) (HPC)",67 % of control and 79 % of control
same,T/C,"dose: 10.0 mg/kg/injection, vehicle: Klucel (hydroxypropylcellulose) (HPC)",66 % of control and 82 % of control
same,T/C,"dose: 20.0 mg/kg/injection, vehicle: DMSO",87 % of control
same,T/C,"dose: 40.0 mg/kg/injection, vehicle: DMSO",101 % of control
same,T/C,"dose: 80.0 mg/kg/injection, vehicle: DMSO",41 % of control
same,T/C,"dose: 80.0 mg/kg/injection, vehicle: Klucel (hydroxypropylcellulose) (HPC)",79 % of control and 81 % of control
same,T/C,"dose: 160.0 mg/kg/injection, vehicle: Klucel (hydroxypropylcellulose) (HPC)",57 % of control and 70 % of control
NC1CCCCC1N.O=S(=O)([O-])CCCNC1CCCCC1.O=S(=O)([O-])CCCNC1CCCCC1.[Pt+4],T/C,"dose: 0.78 mg/kg/injection, vehicle: saline",50 % of control
same,T/C,"dose: 1.56 mg/kg/injection, vehicle: saline",38 % of control
same,T/C,"dose: 3.12 mg/kg/injection, vehicle: saline",62 % of control
same,T/C,[8],25 % of control and 47 % of control
same,T/C,[11],14 % of control
N=C1CCCS1,T/C,[12],101 % of control
COc1ccc(S(=O)(=O)N/N=C/C(=O)O)cc1,T/C,"dose: 6.25 mg/kg/injection, vehicle: saline with Tween-80",82 % of control
same,T/C,[1],96 % of control and 104 % of control
same,T/C,[2],117 % of control and 100 % of control
same,T/C,[4],87 % of control and 95 % of control
CO[C@@]12[C@@H]3N[C@@H]3CN1C1=C(C(=O)C(NCC3CCCO3)=C(C)C1=O)[C@@H]2COC(N)=O (some centres undefined),T/C,"dose: 3.0 mg/kg/injection, vehicle: distilled water + Tween-80",93 % of control
same,T/C,"dose: 6.0 mg/kg/injection, vehicle: distilled water + Tween-80",69 % of control
same,T/C,"dose: 12.0 mg/kg/injection, vehicle: distilled water + Tween-80",34 % of control
same,T/C,"dose: 24.0 mg/kg/injection, vehicle: distilled water + Tween-80",28 % of control
NC(=O)CC(N)C(=O)O (centres undefined),T/C,[5],72 % of control
same,T/C,[6],85 % of control
same,T/C,[7],79 % of control
same,T/C,"dose: 400.0 mg/kg/injection, vehicle: other",91 % of control
same,T/C,"dose: 800.0 mg/kg/injection, vehicle: other",118 % of control
same,T/C,"dose: 1600.0 mg/kg/injection, vehicle: other",88 % of control
Cc1cc(SCC(=O)c2ccc(Br)cc2)cc(C)[o+]1,T/C,[11],122 % of control
same,T/C,[9],77 % of control and 101 % of control
same,T/C,[10],111 % of control and 107 % of control
same,T/C,"dose: 100.0 mg/kg/injection, vehicle: saline",98 % of control and 100 % of control
same,T/C,[12],100 % of control
CC(C)[C@](O)(C(=O)OCC1=CCN2CC[C@@H](O)[C@@H]12)[C@H](C)O,T/C,"dose: 12.5 mg/kg/injection, vehicle: suspension in saline",123 % of control
same,T/C,"dose: 25.0 mg/kg/injection, vehicle: suspension in saline",76 % of control
same,T/C,[10],85 % of control
same,T/C,"dose: 50.0 mg/kg/injection, vehicle: suspension in saline",74 % of control
same,T/C,"dose: 50.0 mg/kg/injection, vehicle: water",73 % of control
same,T/C,"dose: 100.0 mg/kg/injection, vehicle: suspension in saline",56 % of control
same,T/C,"dose: 100.0 mg/kg/injection, vehicle: water",184 % of control
same,T/C,[12],105 % of control
same,T/C,"dose: 200.0 mg/kg/injection, vehicle: suspension in saline",98 % of control
same,T/C,"dose: 400.0 mg/kg/injection, vehicle: saline",81 % of control
same,T/C,"dose: 400.0 mg/kg/injection, vehicle: suspension in saline",95 % of control
same,T/C,"dose: 400.0 mg/kg/injection, vehicle: water",52 % of control
